Laboratory results from ChEMBL document CHEMBL4371049, “Semi-synthesis and anti-tumor activity of novel 25-OCH3-PPD derivatives incorporating aromatic moiety” (Bioorg Med Chem Lett, 2019).

Experiments:
Type in all cases: functional, cell-based
DU-145 = test: Antiproliferative activity against human DU145 cells after 48 hrs by MTT assay; conditions: DU-145, 48 h
MCF7 = test: Antiproliferative activity against human MCF7 cells after 48 hrs by MTT assay; conditions: MCF7, 48 h
HepG2 = test: Antiproliferative activity against human HepG2 cells after 48 hrs by MTT assay; conditions: HepG2, 48 h
BGC-823 = test: Antiproliferative activity against human BGC823 cells after 48 hrs by MTT assay; conditions: BGC-823, 48 h
PC-3 = test: Antiproliferative activity against human PC3 cells after 48 hrs by MTT assay; conditions: PC-3, 48 h

SMILES	IC50 (DU-145) [µM]	IC50 (MCF7) [µM]	IC50 (HepG2) [µM]	IC50 (BGC-823) [µM]	IC50 (PC-3) [µM]
COC(C)(C)CCC[C@@](C)(O)[C@H]1CC[C@]2(C)[C@@H]1[C@H](O)C[C@@H]1[C@@]3(C)CC[C@H](OC(=O)c4cc([N+](=O)[O-])cc([N+](=O)[O-])c4)C(C)(C)[C@@H]3CC[C@]12C	13.4	11.7	14.5	9.5	7.5
COC(C)(C)CCC[C@@](C)(O)[C@H]1CC[C@]2(C)[C@@H]1[C@H](O)C[C@@H]1[C@@]3(C)CC[C@H](OC(=O)c4ccc(I)cc4)C(C)(C)[C@@H]3CC[C@]12C	31.8	46.3	> 50	> 50	> 50
O=c1[nH]cc(F)c(=O)[nH]1 [FLUOROURACIL]	25.3	22.6		24.8	23.1
COC(C)(C)CCC[C@@](C)(O)[C@H]1CC[C@]2(C)[C@@H]1[C@H](O)C[C@@H]1[C@@]3(C)CC[C@H](OC(=O)c4ccc(F)cc4F)C(C)(C)[C@@H]3CC[C@]12C	6.7	4.3	5.8	7.1	11.4
COC(C)(C)CCC[C@@](C)(O)[C@H]1CC[C@]2(C)[C@@H]1[C@H](O)C[C@@H]1[C@@]3(C)CC[C@H](OC(=O)/C=C/c4ccc(F)cc4)C(C)(C)[C@@H]3CC[C@]12C	20.6	23.7	26.9	18	17.6
COC(C)(C)CCC[C@@](C)(O)[C@H]1CC[C@]2(C)[C@@H]1[C@H](OC(=O)c1cc([N+](=O)[O-])cc([N+](=O)[O-])c1)C[C@@H]1[C@@]3(C)CC[C@H](O)C(C)(C)[C@@H]3CC[C@]12C	> 50	> 50	> 50	> 50	> 50
COC(C)(C)CCC[C@@](C)(O)[C@H]1CC[C@]2(C)[C@@H]1[C@H](O)C[C@@H]1[C@@]3(C)CC[C@H](OC(=O)c4cc(C)cc(C)c4)C(C)(C)[C@@H]3CC[C@]12C	> 50	48.2	> 50	> 50	> 50
COC(C)(C)CCC[C@@](C)(O)[C@H]1CC[C@]2(C)[C@@H]1[C@H](O)C[C@@H]1[C@@]3(C)CC[C@H](OC(=O)c4cc(Br)cc(Br)c4)C(C)(C)[C@@H]3CC[C@]12C	22.6	41.7	43.6	36.1	38.4
COC(C)(C)CCC[C@@](C)(O)[C@H]1CC[C@]2(C)[C@@H]1[C@H](OC(=O)/C=C/c1ccc(F)cc1)C[C@@H]1[C@@]3(C)CC[C@H](O)C(C)(C)[C@@H]3CC[C@]12C	> 50	> 50	> 50	> 50	> 50
COC(C)(C)CCC[C@@](C)(O)[C@H]1CC[C@]2(C)[C@@H]1[C@H](O)C[C@@H]1[C@@]3(C)CC[C@H](OC(=O)c4cc(F)ccc4Br)C(C)(C)[C@@H]3CC[C@]12C	28.7	15.6	18.9	34.4	39.9
COC(C)(C)CCC[C@@](C)(O)[C@H]1CC[C@]2(C)[C@@H]1[C@H](O)C[C@@H]1[C@@]3(C)CC[C@H](OC(=O)c4cccc(F)c4)C(C)(C)[C@@H]3CC[C@]12C	8.6	6.4	10.3	5.3	13.5
COC(C)(C)CCC[C@@](C)(O)[C@H]1CC[C@]2(C)[C@@H]1[C@H](O)C[C@@H]1[C@@]3(C)CC[C@H](OC(=O)c4ccccc4[N+](=O)[O-])C(C)(C)[C@@H]3CC[C@]12C	11.5	8.6	12	7.9	14.8
COC(C)(C)CCC[C@@](C)(O)[C@H]1CC[C@]2(C)[C@@H]1[C@H](OC(=O)c1ccc(Cl)cc1)C[C@@H]1[C@@]3(C)CC[C@H](OC(=O)c4ccc(Cl)cc4)C(C)(C)[C@@H]3CC[C@]12C	> 50	36.4	41.5	> 50	> 50
COC(C)(C)CCC[C@@](C)(O)[C@H]1CC[C@]2(C)[C@@H]1[C@H](OC(=O)c1ccc(I)cc1)C[C@@H]1[C@@]3(C)CC[C@H](OC(=O)c4ccc(I)cc4)C(C)(C)[C@@H]3CC[C@]12C	> 50	> 50	> 50	> 50	> 50
COC(C)(C)CCC[C@@](C)(O)[C@H]1CC[C@]2(C)[C@@H]1[C@H](OC(=O)c1ccccc1)C[C@@H]1[C@@]3(C)CC[C@H](O)C(C)(C)[C@@H]3CC[C@]12C	> 50	> 50	> 50	> 50	> 50
COC(C)(C)CCC[C@@](C)(O)[C@H]1CC[C@]2(C)[C@@H]1[C@H](OC(=O)c1cc([N+](=O)[O-])cc([N+](=O)[O-])c1)C[C@@H]1[C@@]3(C)CC[C@H](OC(=O)c4cc([N+](=O)[O-])cc([N+](=O)[O-])c4)C(C)(C)[C@@H]3CC[C@]12C	44.6	38.2	> 50	> 50	> 50
COC(C)(C)CCC[C@@](C)(O)[C@H]1CC[C@]2(C)[C@@H]1[C@H](O)C[C@@H]1[C@@]3(C)CC[C@H](O)C(C)(C)[C@@H]3CC[C@]12C	40.7	31.3	35.9	36	39.5
COC(C)(C)CCC[C@@](C)(O)[C@H]1CC[C@]2(C)[C@@H]1[C@H](OC(=O)/C=C/c1ccc(F)cc1)C[C@@H]1[C@@]3(C)CC[C@H](OC(=O)/C=C/c4ccc(F)cc4)C(C)(C)[C@@H]3CC[C@]12C	34.6	> 50	41.8	> 50	> 50
COC(C)(C)CCC[C@@](C)(O)[C@H]1CC[C@]2(C)[C@@H]1[C@H](O)C[C@@H]1[C@@]3(C)CC[C@H](OC(=O)c4ccccc4C)C(C)(C)[C@@H]3CC[C@]12C	44.3	37.6	> 50	> 50	> 50
COC(C)(C)CCC[C@@](C)(O)[C@H]1CC[C@]2(C)[C@@H]1[C@H](OC(=O)/C=C/c1ccccc1)C[C@@H]1[C@@]3(C)CC[C@H](O)C(C)(C)[C@@H]3CC[C@]12C	> 50	> 50	> 50	> 50	> 50
COC(C)(C)CCC[C@@](C)(O)[C@H]1CC[C@]2(C)[C@@H]1[C@H](OC(=O)c1ccccc1C)C[C@@H]1[C@@]3(C)CC[C@H](O)C(C)(C)[C@@H]3CC[C@]12C	> 50	> 50	> 50	> 50	> 50
COC(C)(C)CCC[C@@](C)(O)[C@H]1CC[C@]2(C)[C@@H]1[C@H](OC(=O)c1cc(C)cc(C)c1)C[C@@H]1[C@@]3(C)CC[C@H](OC(=O)c4cc(C)cc(C)c4)C(C)(C)[C@@H]3CC[C@]12C	> 50	> 50	> 50	> 50	> 50
COC(C)(C)CCC[C@@](C)(O)[C@H]1CC[C@]2(C)[C@@H]1[C@H](O)C[C@@H]1[C@@]3(C)CC[C@H](OC(=O)c4cccc(C)c4)C(C)(C)[C@@H]3CC[C@]12C	46.2	> 50	38.4	> 50	> 50
COC(C)(C)CCC[C@@](C)(O)[C@H]1CC[C@]2(C)[C@@H]1[C@H](OC(=O)/C=C/c1ccccc1)C[C@@H]1[C@@]3(C)CC[C@H](OC(=O)/C=C/c4ccccc4)C(C)(C)[C@@H]3CC[C@]12C	> 50	> 50	> 50	> 50	> 50
COC(C)(C)CCC[C@@](C)(O)[C@H]1CC[C@]2(C)[C@@H]1[C@H](O)C[C@@H]1[C@@]3(C)CC[C@H](OC(=O)c4ccccc4)C(C)(C)[C@@H]3CC[C@]12C	23.5	18.9	17.8	35.1	30.4
COC(C)(C)CCC[C@@](C)(O)[C@H]1CC[C@]2(C)[C@@H]1[C@H](OC(=O)c1ccccc1I)C[C@@H]1[C@@]3(C)CC[C@H](OC(=O)c4ccccc4I)C(C)(C)[C@@H]3CC[C@]12C	> 50	> 50	> 50	> 50	> 50
COC(C)(C)CCC[C@@](C)(O)[C@H]1CC[C@]2(C)[C@@H]1[C@H](O)C[C@@H]1[C@@]3(C)CC[C@H](OC(=O)/C=C/c4ccc(Cl)cc4)C(C)(C)[C@@H]3CC[C@]12C	33.1	20.8	26.7	25.8	23.5
COC(C)(C)CCC[C@@](C)(O)[C@H]1CC[C@]2(C)[C@@H]1[C@H](OC(=O)c1ccc(I)cc1)C[C@@H]1[C@@]3(C)CC[C@H](O)C(C)(C)[C@@H]3CC[C@]12C	> 50	> 50	> 50	> 50	> 50
COC(C)(C)CCC[C@@](C)(O)[C@H]1CC[C@]2(C)[C@@H]1[C@H](OC(=O)c1cc(I)ccc1Cl)C[C@@H]1[C@@]3(C)CC[C@H](OC(=O)c4cc(I)ccc4Cl)C(C)(C)[C@@H]3CC[C@]12C	> 50	> 50	> 50	> 50	> 50
